Read-outs that look alike come from different tables or passages of the source.
Legend:
[1] = biological target: adenosine A2a receptor (Homo sapiens, UniProt P29274); experiment: Intracellular cAMP (cAMP-RIA) in CHO cells transfected with cDNA for the A2a receptor, agonist mode; assay type: cell-based; conditions: for Concentration of intracellular cAMP in percent: CHO cells with A2a receptor, based on control without substance; for effect on cells with the A2a receptor (in words): summary of cAMP data
Protocol: (§1) Cells of the permanent line CHO (Chinese Hamster Ovary) were stably transfected with cDNA for the adenosine receptor subtypes A1, A2a, A2b and A3. Binding of the substances to the A2a or A2b receptor subtypes was determined by measuring the intracellular cAMP concentration in these cells using a conventional radioimmunological assay (cAMP-RIA, IBL GmbH, Hamburg, Germany).
(§2) In the case of the action of the substances as agonists, binding of the substances is expressed in an increase of the intracellular cAMP concentration.
(§3) In the experiments below, the intracellular cAMP concentration in CHO cells which had been transfected with cDNA for the A2a receptor was determined. What is stated is the cAMP concentration in percent in all cells in a well of a microtiter plate, based on the control value obtained without any substances acting on the cells: […]

[2] = biological target: T1, adenosine A2b receptor (Homo sapiens, UniProt P29275); experiment: Intracellular cAMP (cAMP-RIA) in CHO cells transfected with cDNA for the A2b receptor, agonist mode; assay type: cell-based; conditions: for activity at 10 µM / activity at 1 µM / activity at 0.1 µM / activity at 0.01 µM / activity at 0.001 µM: read-out: Concentration of intracellular cAMP in percent; for agonistic effect on cells which express the adenosine receptor A2b (in words): summary of cAMP data
T1 sequence (P29275 1-332): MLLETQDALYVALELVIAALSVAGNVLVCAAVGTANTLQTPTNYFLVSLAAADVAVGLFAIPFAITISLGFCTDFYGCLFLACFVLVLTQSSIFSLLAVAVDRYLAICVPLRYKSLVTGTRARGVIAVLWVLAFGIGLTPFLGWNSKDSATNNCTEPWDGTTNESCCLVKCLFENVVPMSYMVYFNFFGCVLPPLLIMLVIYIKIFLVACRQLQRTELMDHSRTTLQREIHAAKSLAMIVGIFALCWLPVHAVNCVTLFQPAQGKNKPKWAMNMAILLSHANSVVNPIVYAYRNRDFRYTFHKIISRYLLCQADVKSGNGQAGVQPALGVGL
Protocol: as §1, §2
as §3, with “A2b” for “A2a”

[3] = biological target: T2, adenosine A1 receptor (Homo sapiens, UniProt P30542); experiment: Intracellular cAMP in CHO cells transfected with cDNA for the A1 receptor after prestimulation with forskolin; assay type: cell-based; conditions: for remaining activity at 10 µM / remaining activity at 1 µM / remaining activity at 0.1 µM: CHO cells with A1 receptor, based on control prestimulated with 1 μM forskolin for 15 min (18% without forskolin), read-out: Concentration of intracellular cAMP in percent; for remaining activity at 10 µM: 10^-5 M; for remaining activity at 1 µM: 10^-6 M; for remaining activity at 0.1 µM: 10^-7 M; for receptor selectivity: adenosine A1 receptor: conclusion from cAMP data on A1, A2a, A2b cells; for agonistic effect on cells with the A1 receptor (in words): summary of cAMP data
T2 sequence (P30542 1-326): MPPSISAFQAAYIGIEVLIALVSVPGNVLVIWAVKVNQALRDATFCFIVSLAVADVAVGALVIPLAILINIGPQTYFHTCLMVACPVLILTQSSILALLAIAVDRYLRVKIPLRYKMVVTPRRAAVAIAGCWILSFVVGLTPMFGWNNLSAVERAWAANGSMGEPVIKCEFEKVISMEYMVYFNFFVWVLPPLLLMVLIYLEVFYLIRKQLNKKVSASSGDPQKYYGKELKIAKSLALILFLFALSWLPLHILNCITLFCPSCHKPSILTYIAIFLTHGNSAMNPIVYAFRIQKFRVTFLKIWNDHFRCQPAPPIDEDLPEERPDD
Protocol: as §1
The adenosine receptors A1 and A3 are coupled to a Gi protein, i.e. stimulation of these receptors results in an inhibition of adenylate cyclase and thus a reduction of the intracellular cAMP level. To identify A1/A3 receptor agonists, the adenylate cyclase is stimulated using forskolin. However, additional stimulation of the A1/A3 receptors inhibits adenylate cyclase, so that it is possible to detect A1/A3 receptor agonists by a comparatively low concentration of cAMP in the cell.
In the following experiments, the intracellular cAMP concentration in CHO cells transfected with the cDNA for the A1 receptor was determined.

[4] = test system: Langendorff heart of the rat (coronary arteries); experiment: Langendorff heart of the rat: coronary perfusion pressure, left ventricular pressure, heart rate; conditions: isolated rat heart
Protocol: After opening the thoracic cage of anesthetized rats, the heart is removed quickly and introduced into a conventional Langendorff apparatus. The coronary arteries are perfused at a constant volume (10 ml/min), and the resulting perfusion pressure is recorded via an appropriate pressure sensor. In this arrangement, a decrease of the perfusion pressure corresponds to a relaxation of the coronary arteries. At the same time, the pressure which is developed by the heart during each contraction is measured via a balloon introduced into the left ventricle and a further pressure sensor. The frequency of the isolated beating heart is calculated from the number of contractions per time unit.
In this test arrangement, the following values were obtained for the coronary perfusion pressure (the stated percentage refers to the reduction of the coronary perfusion pressure in percent at the respective concentration):
At the stated concentrations, the substances tested had no effect on the pressure developed during the contraction in the left ventricle and no effect on the heart rate.

[5] = CHO cells with A2b receptor, 10^-5 M, based on control without substance
[6] = CHO cells with A2b receptor, 10^-6 M, based on control without substance
[7] = CHO cells with A2b receptor, 10^-7 M, based on control without substance

Sequence of adenosine A2a receptor (P29274 whole entry): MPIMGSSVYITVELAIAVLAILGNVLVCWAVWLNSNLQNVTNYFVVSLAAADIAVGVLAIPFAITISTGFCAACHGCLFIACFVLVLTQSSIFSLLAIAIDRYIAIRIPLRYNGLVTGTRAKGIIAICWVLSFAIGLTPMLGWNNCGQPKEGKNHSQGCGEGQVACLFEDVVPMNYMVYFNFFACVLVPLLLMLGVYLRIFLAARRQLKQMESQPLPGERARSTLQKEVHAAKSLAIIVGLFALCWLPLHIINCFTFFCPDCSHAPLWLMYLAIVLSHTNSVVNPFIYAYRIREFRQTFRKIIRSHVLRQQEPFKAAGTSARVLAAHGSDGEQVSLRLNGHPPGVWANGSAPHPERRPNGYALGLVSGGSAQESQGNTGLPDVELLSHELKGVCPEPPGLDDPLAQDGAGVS

| Structure (SMILES) | Concentration of intracellular cAMP in percent ([1]; 10^-5 M) [%] | Concentration of intracellular cAMP in percent ([1]; 10^-6 M) [%] | Concentration of intracellular cAMP in percent ([1]; 10^-7 M) [%] | effect on cells with the A2a receptor (in words) [1] | activity at 10 µM [2, 5] [%] | activity at 1 µM [2, 6] [%] | activity at 0.1 µM [2, 7] [%] | agonistic effect on cells which express the adenosine receptor A2b (in words) [2] | remaining activity at 10 µM [3] [%] | remaining activity at 1 µM [3] [%] | remaining activity at 0.1 µM [3] [%] | agonistic effect on cells with the A1 receptor (in words) [3] | Reduction of the coronary perfusion pressure in percent ([4]; concentration 10^-6 g/ml) | Reduction of the coronary perfusion pressure in percent ([4]; concentration 10^-7 g/ml) | further results |
| --- | --- | --- | --- | --- | --- | --- | --- | --- | --- | --- | --- | --- | --- | --- | --- |
| N#Cc1c(N)nc(SCC(N)=O)c(C#N)c1-c1ccc(O)cc1 [A 1] | 208 | 117 | 92 | virtually no effect | 900 | 947 | 837 | clear agonistic effect |  |  |  |  |  |  |  |
| N#Cc1c(N)nc(SCCO)c(C#N)c1-c1cccc(O)c1 [A 43] | 317 | 200 | 117 | virtually no effect | 784 | 674 | 347 | considerably weaker effect | 22 | 24 | 18 | clear agonistic effect | about 68% | about 42% | receptor selectivity: adenosine A1 receptor [3]: selective adenosine A1 receptor agonists |
| CC(O)CSc1nc(N)c(C#N)c(-c2cccc(O)c2)c1C#N (stereo not drawn) [A 46] | 183 | 108 | 67 |  | 753 | 716 | 463 |  |  |  |  |  |  |  |  |
| N#Cc1c(N)nc(SCCO)c(C#N)c1-c1ccccc1 [A 104] | 212 | 146 | 107 | virtually no effect | 571 | 586 | 438 | considerably weaker effect | 21 | 23 | 28 | clear agonistic effect |  |  | receptor selectivity: adenosine A1 receptor [3]: selective adenosine A1 receptor agonists; Concentration of intracellular cAMP in percent ([1]; 10^-8 M): 107%; Concentration of intracellular cAMP in percent ([1]; 10^-9 M): 104%; activity at 0.01 µM ([2]; CHO cells with A2b receptor, 10^-8 M, based on control without substance): 178%; activity at 0.001 µM ([2]; CHO cells with A2b receptor, 10^-9 M, based on control without substance): 100% |
| Cc1ccc(-c2c(C#N)c(N)nc(SCc3ccccc3)c2C#N)cc1 [A 189] |  |  |  |  |  |  |  |  |  |  |  |  | about 37% | no effect observed |  |
| Cc1ccc(-c2c(C#N)c(N)nc(SCC(O)CO)c2C#N)cc1 (stereo not drawn) [A 198] |  |  |  |  |  |  |  |  |  |  |  |  | about 26% | no effect observed |  |
| N#Cc1c(N)nc(SCc2ncc[nH]2)c(C#N)c1-c1ccc(O)cc1 [A 379] | 291 | 235 | 218 | virtually no effect |  |  |  | clear agonistic effect | 35 | 34 | 34 | comparably weaker effect | about 63% | about 64% | Concentration of intracellular cAMP in percent ([1]; 10^-8 M): 160%; Concentration of intracellular cAMP in percent ([1]; 10^-9 M): 93%; activity at 0.001 µM ([2]; CHO): 870%; activity at 0.01 µM ([2]; CHO): 846%; activity at 0.1 µM ([2]; CHO): 861%; activity at 1 µM ([2]; CHO): 936%; receptor selectivity: adenosine A2b receptor ([2]; conclusion from cAMP data on A1, A2a, A2b cells): selective adenosine A2b receptor agonist |
| N#Cc1c(N)nc(SCCO)c(C#N)c1-c1ccc(O)cc1 [Example 21, 2-Amino-6-[(2-hydroxyethyl)sulfanyl]-4-(4-hydroxyphenyl)-3,5-pyridinedicarbonitrile] |  | 117 | 143 |  |  |  |  |  |  |  |  |  | about 75% | about 40% | activity at 0.1 µM ([2]; CHO): 253%; activity at 1 µM ([2]; CHO): 432%; activity at 10 µM ([2]; CHO): 384% |

— patent publication US7504421B2, “Substituted 2-thio-3,5-dicyano-4-aryl-6-aminopyridines and their use” (priority 1999, dated 2009)
